Read-outs that look alike come from different tables or passages of the source.
Tests used:
PPARg = assay: PPARgamma Transient Cotransfection Assay; format: cell-based
db/db mice = assay: In vivo Evaluation in db/db mice (plasma glucose); set-up: species or system mouse; settings: 5 mg/kg b.i.d. oral gavage, fourteen days
Description: In vivo Evaluation: Experiments were performed on db/db mice (n=40-48), approximately 60 day old, divided into either vehicle or treatment groups. From each group 8-12 animals were placed in Nalgene metabolic cages, 2 per cage. The remaining animals are housed in standard rack cages; 3-4 per cage. Test compounds were dissolved in an appropriate vehicle. Animals were administered either the vehicle or the compound (dose=5 mg/kg) delivered at 5 ml/kg, b.i.d., via oral gavage for fourteen days. Daily measurements were made of mice housed in metabolic cages to determine consumption of food and water, urine output and urinary glucose excretion and changes in body weight. Animals housed in rack cages were weighed approximately every four days to monitor changes in body weight. An equal number of animals from each group were sampled on days 0, 4, 7 and 14. Mice were anesthetized with isolflurane, blood samples were obtained by cardiac puncture and analyzed to determine plasma levels of glucose, insulin, total cholesterol, triglycerides and non-esterified free fatty acids (NEFA's).

hPPARgamma = molecular target: T1, hPPARgamma (Homo sapiens, UniProt P37231); assay: hPPARgamma Ligand Binding Assay; settings: PPARg Ki, competition with [3H]-BRL 49,653, room temperature 2 hrs
T1 construct: 10x-histidine tag (N); made in house; host or cells: E. coli
T1 sequence (P37231 195-475 isoform P37231-2): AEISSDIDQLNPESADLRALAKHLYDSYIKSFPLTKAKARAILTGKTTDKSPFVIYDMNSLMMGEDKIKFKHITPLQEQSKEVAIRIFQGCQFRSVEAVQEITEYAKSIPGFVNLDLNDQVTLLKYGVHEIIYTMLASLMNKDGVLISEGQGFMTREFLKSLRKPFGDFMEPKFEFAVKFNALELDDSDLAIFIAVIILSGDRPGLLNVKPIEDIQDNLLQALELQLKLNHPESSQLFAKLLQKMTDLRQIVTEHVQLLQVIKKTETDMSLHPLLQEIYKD
Description: 2. hPPARgamma Ligand Binding Assay: The PPAR-gamma ligand binding domain (amino acids 195-475) was expressed with an N-terminal 10×-histidinetag in E. coli cells. The cells were lysed and receptor was purified by means of the epitope tag. The stock solution of protein was diluted to 200 nM in assay buffer (50 mM Tris, 50 mM KCl, pH 8 20 mM CHAPS, 2 mM EDTA 10 mM DTT (Fresh)) just before use.
Test compounds were prepared as 6 mM stock solutions in DMSO. […] The right-most column of wells was used for controls. […] Plates were incubated at room temperature for 2 hrs, and then cooled on ice for 30 minutes. 50 uL samples from each well of a single test plate were simultaneously loaded onto an equilibrated AGTC 96 well gel filtration block (Advanced Genetics Technology Corp.) using a Zymak Rapidplate automated pipettor. The block was placed on top of a clean microtiter plate and centrifuged @1,100×g for 4 min. 200 uL of scintillation fluid was added to each well, the plates were sealed and allowed to equilibrate for at least 4 hours before counting in a Wallac 1250 Microbeta counter.
Ki's were determined from a nonlinear least squares fit of the data to a simple competitive binding model.

pre-adipocyte cell lines = settings: treatment of pre-adipocyte cell lines; cited from earlier work
human patients = settings: patients with impaired glucose tolerance, NIDDM; cited from earlier work
[1] = read-out: PPARg EC50, CAT reporter

SMILES	EC50 (PPARg; [1])	% lowering of plasma glucose (db/db mice)	further results
CN(CCOc1ccc(C[C@H](Nc2ccccc2C(=O)c2ccccc2)C(=O)O)cc1)c1ccccn1 [Example 12, 2(S)-(2-benzoyl-phenylamino)-3-{4-[2-(methyl-pyridin-2-yl-amino)-ethoxy]-phenyl}-propionic acid]	5 nM	58%	
CN(CCOc1ccc(CC(Nc2ccccc2C(=O)c2ccccc2)C(=O)O)cc1)c1nc2ccccc2o1 (stereo not drawn) [Example 16, 3-{4-[2-(benzoxazol-2-yl-methyl-amino)-ethoxy]-phenyl}-2-(2-benzoyl-phenylamino)-propionic acid]		63%	EC50 (PPARg; CAT reporter, read-out: PPARg EC50): 1 nM; Ki (hPPARgamma): 20 nM
CCc1ccc(CCOc2ccc(CC3SC(=O)NC3=O)cc2)nc1 (stereo not drawn) [pioglitazone]			expression of adipocyte-specific genes aP2 and adipsin and glucose transporter proteins GLUT-1 and GLUT-4 (pre-adipocyte cell lines): increased expression of the adipocyte-specific genes aP2 and adipsin as well as the glucose transporter proteins GLUT-1 and GLUT-4
Cc1oc(-c2ccccc2)nc1CCOc1ccc(C[C@H](Nc2ccccc2C(=O)c2ccccc2)C(=O)O)cc1 [Example 29, 2(S)-(2-Benzoyl-phenylamino)-3-{4-[2-(5-methyl-2-phenyl-oxazol-4-yl)ethoxy]-phenyl}-propionic acid]	0.2 nM	70%	
Cc1c(C)c2c(c(C)c1O)CCC(C)(COc1ccc(CC3SC(=O)NC3=O)cc1)O2 (stereo not drawn) [troglitazone]			effects in human patients (insulin sensitivity, lipid and insulin levels) (human patients): these same beneficial effects in human patients

From patent US6294580A, “Substituted 4-hydroxy-phenylalcanoic acid derivatives with agonist activity to PPAR-gamma” (Glaxo Wellcome Inc., priority 1996, dated 2001)
